In general, cell viability refers to a per cent measure of how many cells are alive, often set against a control.

These results are taken from article PMC7023394, “Cell Penetrating Peptide as a High Safety Anti-Inflammation Ingredient for Cosmetic Applications” (Biomolecules, 2020).

In data set [1] the test system is Raw264.7 macrophage cells. The class given is cell-based. As to conditions: 1 µM. The protocol: In this experiment, macrophage (Raw264.7) cells were seeded in 96-well plates (5 × 10^5 cells/mL) and allowed to attach overnight. After attachment, cells were incubated with various concentrations of CPPAIF for 1 h and followed by stimulation with 1 μg/mL of LPS (lipopolysaccharide). No LPS-added cells were considered as control groups. After incubation, the amount of TNF-α and IL-6 in the medium were analyzed by enzyme linked immunosorbent assay (# KHC3011 and #EH2IL6, Thermo Fisher, Waltham, MA, USA). Cell viability was measured by AlamarBlue cell viability assay (BUF012B, Bio-Rad, Hercules, CA, USA).
Figure 5 Anti-inflammation activity of CPPAIF. Raw264.7 macrophage cells were seeded in 96-well plates (5 × 10^5 cells/mL) and allowed to attach overnight. After attachment, the cells were incubated with various concentrations of CPPAIF for 1 h followed by stimulation with 1 μg/mL of LPS. The control group was not treated with LPS and its cytokine secretion was set as 100% (mock). The amounts of TNFα (A) and IL-6 (B) in the medium were analyzed by ELISA. Cell viability was measured by AlamarBlue cell viability assay. *** p < 0.001 versus the control group.

Data set [2] deals with 3D human epidermis tissue model (SkinEthic RHE). Description: Transepidermal measurement by reconstructed human epidermis tissue model. As to conditions: 100 μL containing 100 μM CPPAIF, of exposure (method and legend: 1 h), HPLC, mean ± SD of three. Type of data set: in vitro ADME. As to the method: 3D human epidermis tissue model (SkinEthic™ RHE, SkinEthics, Lyon, France) and two kinds of CPPAIF-containing emulsion systems (water-in-oil emulsion (W/O) and oil-in-water emulsion (O/W)) were prepared for the transepidermal measurements. […] After treatment liquid beneath the model was collected for HPLC quantification. Transepidermal rate was calculated by measuring the amount of CPPAIF in medium beneath the 3D model by HPLC ((concentration of the beneath liquid/concentration of the topical exposure) × 100).
Figure 8 Transepidermal degree of formulated CPPAIF in SkinEthic^TM RHE model. All 3D reconstructed human epidermis tissues were incubated with growth medium for 2 h, then 0.1 mL formulated CPPAIF (0.1 mM) emulsions were added to the top of the tissues and incubated for 1 h. After treatment the liquid beneath the 3D skin model was collected for HPLC quantification. Transepidermal degree was calculated by measuring the amount of CPPAIF in the liquid beneath the 3D skin model using HPLC. ** p < 0.01 versus the W/O formulation group.

Another data set has as its system RBL-2H3 mast cells. As to the kind of experiment: Mast cell degranulation assay (β-hexosaminidase release). Type of data set: cell-based, rat. As to conditions: under 10 μM (0, 0.1, 1, 2, 5, 10 μM); PC A23187 set as 100%. The protocol:
Inhibitory effects on release of β-hexosaminidase in RBL-2H3 (rat-basophilic leukemia cell line) were evaluated by a cell degranulation assay. Briefly, 0.2 mL of 5 × 10^5 cells/mL RBL-2H3 cells were seed in 24-well plates (in Minimum Essential Medium (MEM) containing 10% Fetal Bovine Serum (FBS), streptomycin (100 µg/mL) and penicillin (100 units/mL)) and sensitized with anti-DNP IgE (0.45 µg/mL). These cells were washed with Siraganian buffer (5 mM KCl, 0.4 mM MgCl2, 119 mM NaCl, 25 mM piperazine-N,N 2-bis(2-ethane sulfonic acid (PIPES), and 40 mM NaOH, pH 7.2) with glucose, 1 mM CaCl2, and 0.1% bovine serum albumin (BSA). After washing, these cell were incubated in 160 µL of the PBS for 10 min at 37 °C and then 20 µL of test sample solution or calcimycin (final 1 mM) was added and further incubated for 10 min. The plate was cooling on ice for 10 min to stop reaction. 50 µL of supernatant was transferred to 96-well plate and added with 50 µL of substrate (1 mM p-nitrophenyl N-acetyl-β-D-glucosaminide) in 0.1 M citrate buffer (pH 4.5) at 37 °C for 2.5 h. The reaction was stopped by adding 200 µL of carbonate-bicarbonate buffer (0.1 M, pH 10.0). The value of A405 was measured with a microplate reader.
Figure 6 Sensitization test of CPPAIF. The sensitization of CPPAIF was evaluated by mast cell degranulation assay. […]

Data set [3] can be described thus: Stability of CPPAIF in W/O and O/W emulsions (HPLC). The class given is physicochemical. As to conditions: 0.1 mM CPPAIF.
Data set [4] deals with SkinEthic RHE 3D reconstructed human epidermis tissue model. As to the kind of experiment: In vitro skin irritation test (OECD 439). As to conditions: 1 mM.
Data set [5] relates to cysteine- or lysine-containing peptide. Description: In chemico skin sensitization: Direct Peptide Reactivity Assay (DPRA, OECD 442C). As to conditions: for DPRA Prediction: cysteine 1:10/lysine 1:50 prediction model.
Protocol: The direct peptide reactivity assay (DPRA) is an in chemico method which quantified the remaining concentration of cysteine- or lysine-containing peptide after 24 h incubation with the test chemical at 25 °C. Relative peptide concentration was measured by HPLC (Waters, Milford, MA, USA) with gradient elution and UV detection (220 nm). […] This model allowed to classify the test chemical to one of four reactivity classes used to support the discrimination between sensitisers and non-sensitisers.
The subject of the next data set is HaCaT cells. Description: Internalization of TMR-CPPAIF in human keratinocytes (confocal microscopy). The class given is cell-based. As to conditions: 20 µM, 37 °C, 30 min, confocal laser-scanning microscopy. As to the method:
Confocal Laser-scanning Microscopy (CLSM, Zeiss Cell Observer-Z1, Baden-Württemberg, Germany) was performed to assess distribution of TMR-labeled CPPAIF (tetramethylrhodamine-[…], synthesized by Kelowna International Scientific, Taipei, Taiwan) in human keratinocytes, HaCaT. First, apply a layer of type I collagen on a glass cover slip, dry and sterilize the cover slip with UV light. Then, culture the HaCaT cells ([…] per slip) on the coverslip for 16 h. The attached HaCaT cells were cultured with 20 μM of the TMR- CPPAIF for 30 min, observed with CLSM (63× oil-immersion objective lens), and photographed under same exposure conditions.
Figure 7 Internalization of TMR-CPPAIF. HaCaT cells (1 × 10^3) were seeded on collagen I coated cover slide and incubated at 37 °C for 16 h. The cells were then incubatd with 20 μM of TMR-CPPAIF at 37 °C for 30 min. After washing and fixing, the cells were mounted and monitored by confocal microscopy. Red: TMR; Blue: nuclear staining with DAPI. (Magnification: 63×).

The mark [6] stands for this setting: test item 100 mM, 24 h, 25 °C, HPLC, UV 220 nm.

Where no end group is shown, it is not given here.

Consider NYRWRCKNQN [CPPAIF], for which the cell viability in data set [1] was 85.2 ± 4.25%. The “Transepidermal degree ((concentration in the beneath liquid/concentration in the topical exposure) × 100)” value in data set [2] (O/W formulation) stood at 28.4 ± 1.7%; in data set [2] (W/O formulation), 41.4 ± 3.6%. The “mast cell degranulation release (β-hexosaminidase)” value in the data set with RBL-2H3 mast cells is reported as “did not induce any mast cell degranulation release”. The “stability of CPPAIF in emulsion compositions” value in data set [3] is on record as “did not influence stability”. In addition, the “skin irritation classification of OECD 439” value in data set [4] is listed as “did not cause skin irritation (no category)”. For the same compound, the “DPRA Prediction” value in data set [5] (test item 0.1 mM) is on record as “Non-sensitiser”.

With “tetramethylrhodamine-NYRWRCKNQN [TMR-CPPAIF, tetramethylrhodamine-labeled CPPAIF]”, in the data set with HaCaT cells, the “internalization into cells (TMR signal)” value is given as “internalized into the cells”.

With `OCCOc1ccccc1` [Phenoxyethanol, phenoxyethanol], in data set [5] (setting [6]), the “Cysteine Depletion” value turned out to be 1.38%; the “Lysine Depletion” value is given as −0.25%; the “Mean of Cysteine and Lysine % Depletion” value is recorded as 0.56%. Besides, the “DPRA Prediction” value in data set [5] (test item 100 mM) is recorded as “Non-sensitiser”.
